Values of other authors, collected in patent publication US12090147B2, “Combination therapy with 2-(4-chlorophenyl)-N-((2-(2,6-dioxopiperidin-3-yl)-1-oxoisoindolin-5-yl)methyl)-2,2-difluoroacetamide” (Celgene Corporation, priority 2019, dated 2024).

System: acute myeloid leukemia (AML) at relapse
Details: administered alone; cited from earlier work

CT-011: anti-PD-1 antibody, a humanized antibody
Response in treating AML at relapse: failed to show response
